Earlier results as cited in patent US9364476B2, “Methods of treating a Bruton's Tyrosine Kinase disease or disorder” (Celgene Avilomics Research, Inc., priority 2011, dated 2016).

How the values were obtained:
Btk = Btk (Homo sapiens, UniProt Q06187); settings: enzymatic and cellular assays; cited from earlier work
B-cell = settings: cited from earlier work

Sequence of Btk (Q06187 whole entry, species assumed): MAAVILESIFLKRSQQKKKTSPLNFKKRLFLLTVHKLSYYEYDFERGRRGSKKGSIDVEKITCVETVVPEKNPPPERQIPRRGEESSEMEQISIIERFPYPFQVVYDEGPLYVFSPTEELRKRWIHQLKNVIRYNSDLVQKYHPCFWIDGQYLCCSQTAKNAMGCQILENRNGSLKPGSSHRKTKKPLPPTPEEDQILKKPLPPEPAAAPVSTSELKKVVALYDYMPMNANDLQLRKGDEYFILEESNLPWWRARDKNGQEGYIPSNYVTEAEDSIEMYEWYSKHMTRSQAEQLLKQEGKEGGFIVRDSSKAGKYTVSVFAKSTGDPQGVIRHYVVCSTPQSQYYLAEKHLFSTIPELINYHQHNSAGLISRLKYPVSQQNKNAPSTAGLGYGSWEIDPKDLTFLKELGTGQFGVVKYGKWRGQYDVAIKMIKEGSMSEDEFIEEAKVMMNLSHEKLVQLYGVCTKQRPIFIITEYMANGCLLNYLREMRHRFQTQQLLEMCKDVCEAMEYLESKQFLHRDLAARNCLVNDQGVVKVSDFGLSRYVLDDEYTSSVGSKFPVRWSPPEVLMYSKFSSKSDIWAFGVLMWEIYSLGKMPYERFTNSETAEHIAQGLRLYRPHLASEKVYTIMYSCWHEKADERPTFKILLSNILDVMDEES

In the case of `C=CC(=O)Nc1cccc(Nc2nc(Nc3ccc(OCCOC)cc3)ncc2F)c1` [Compound 1, N-(3-(5-fluoro-2-(4-(2-methoxyethoxy)phenylamino)pyrimidin-4-ylamino)phenyl)acrylamide], the “mode of BTK inhibition” value (Btk) is given as “covalent, irreversible inhibition of BTK” and the “effect on B-cell proliferation and activation” value (B-cell) is given as “inhibit B-cell proliferation and activation”.
